For five compounds, IC50 and Activity results are on record in ChEMBL document CHEMBL5325484, “Quinolinetrione-tacrine hybrids as multi-target-directed ligands against Alzheimer's disease” (Bioorg Med Chem, 2023).

What is called IC50 is the concentration needed to halve the response being measured.

One data set concerns the target Acetylcholinesterase (Homo sapiens, UniProt P22303). The data set can be described thus: Inhibition of recombinant human AChE using acetylthiocholine iodide as substrate preincubated with compound for 20 mins followed by substrate addition and measured after 240 sec by spectrophotometer based Ellman's method. A general note: In Ellman's method for cholinesterases, released thiocholine reacts with DTNB.

The target of the next data set is Cholinesterase (Homo sapiens, UniProt P06276). Description: Inhibition of human serum BChE using butyrylthiocholine iodide as substrate preincubated with compound for 20 mins followed by substrate addition and measured after 240 sec by spectrophotometer based Ellman's method. The data set is classed as cell-free.
The subject of data set [1] is HepG2. The data set can be described thus: Cytotoxicity against human HepG2 cells assessed as reduction in cell viability at 1 uM incubated for 24 hrs by MTT assay. As to conditions: hepg2, 24 h. It is filed as toxicity, cell-based. (Tetrazolium assays rely on reduction of a dye to a coloured formazan, in cell work by metabolically active cells.)
For data set [2], the system named is HepG2. Description: Cytotoxicity against human HepG2 cells assessed as reduction in cell viability at 10 uM incubated for 24 hrs by MTT assay relative to control. The data set is classed as toxicity, cell-based. The settings on record: hepg2, 24 h.
The test system of data set [3] is HepG2. The data set can be described thus: Cytotoxicity against human HepG2 cells assessed as reduction in cell viability at 100 uM incubated for 24 hrs by MTT assay. It is filed as toxicity, cell-based. As to conditions: hepg2, 24 h.

Cholinesterase, sequence (P06276 whole entry): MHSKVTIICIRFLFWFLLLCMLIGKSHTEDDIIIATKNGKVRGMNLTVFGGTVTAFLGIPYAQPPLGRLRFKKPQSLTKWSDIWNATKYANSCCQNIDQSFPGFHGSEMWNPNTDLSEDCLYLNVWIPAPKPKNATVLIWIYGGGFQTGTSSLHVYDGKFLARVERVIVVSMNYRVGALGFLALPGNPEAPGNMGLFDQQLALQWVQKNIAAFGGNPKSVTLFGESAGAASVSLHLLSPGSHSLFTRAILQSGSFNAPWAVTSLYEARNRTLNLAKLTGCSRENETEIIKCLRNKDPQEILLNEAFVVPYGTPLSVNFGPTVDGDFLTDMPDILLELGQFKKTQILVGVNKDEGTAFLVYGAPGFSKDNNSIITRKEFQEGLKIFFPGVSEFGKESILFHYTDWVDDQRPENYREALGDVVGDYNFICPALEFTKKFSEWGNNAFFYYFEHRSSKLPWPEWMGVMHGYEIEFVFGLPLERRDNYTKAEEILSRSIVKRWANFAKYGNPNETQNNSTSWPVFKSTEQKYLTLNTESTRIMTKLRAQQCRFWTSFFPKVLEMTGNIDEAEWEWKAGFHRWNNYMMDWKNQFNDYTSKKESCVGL
Acetylcholinesterase, sequence (P22303 whole entry): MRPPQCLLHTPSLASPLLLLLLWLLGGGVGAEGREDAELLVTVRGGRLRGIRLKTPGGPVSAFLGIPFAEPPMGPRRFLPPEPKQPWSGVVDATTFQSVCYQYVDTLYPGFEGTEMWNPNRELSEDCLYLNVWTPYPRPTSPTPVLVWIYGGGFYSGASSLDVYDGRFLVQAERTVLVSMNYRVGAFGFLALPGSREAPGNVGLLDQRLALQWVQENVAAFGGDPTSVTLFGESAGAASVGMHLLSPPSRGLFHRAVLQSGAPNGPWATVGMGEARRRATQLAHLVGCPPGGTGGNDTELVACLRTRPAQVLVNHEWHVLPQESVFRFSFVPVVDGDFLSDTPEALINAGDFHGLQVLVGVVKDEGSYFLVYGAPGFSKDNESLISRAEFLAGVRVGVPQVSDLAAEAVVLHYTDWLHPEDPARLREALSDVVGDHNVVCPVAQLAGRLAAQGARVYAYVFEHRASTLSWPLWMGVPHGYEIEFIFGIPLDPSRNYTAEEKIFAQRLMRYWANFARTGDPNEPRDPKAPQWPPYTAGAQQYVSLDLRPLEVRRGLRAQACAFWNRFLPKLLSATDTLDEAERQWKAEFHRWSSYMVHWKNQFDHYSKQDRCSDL

Consider `Cc1cc(=O)[nH]c2c1C(=O)C(NCCCCNc1c3c(nc4ccccc14)CCCC3)=CC2=O`, for which the IC50 on Acetylcholinesterase was 58.3 nM; on Cholinesterase, 109 nM. For the same compound, the Activity entry with HepG2 [1] is listed as “Non-Toxic”; with HepG2 [2] it was 14%; in the data set on HepG2 [3], “Toxic”.
For `Cc1cc(=O)[nH]c2c1C(=O)C(NCCCCNc1c3c(nc4cc(Cl)ccc14)CCCC3)=CC2=O` the same measures were 5.58 nM, 2830 nM, “Non-Toxic”, 50% and “Toxic”.
As to `Cc1cc(=O)[nH]c2c1C(=O)C(NCCCNc1c3c(nc4cc(Cl)ccc14)CCCC3)=CC2=O`, the IC50 amounted to 11.1 nM at Acetylcholinesterase and 1340 nM at Cholinesterase. In addition, the Activity result with HepG2 [1] is listed as “Non-Toxic”; with HepG2 [2] it was 50%; in the data set on HepG2 [3], “Toxic”.
`Cc1cc(=O)[nH]c2c1C(=O)C(NCCNc1c3c(nc4cc(Cl)ccc14)CCCC3)=CC2=O`: the figures for the IC50 on Acetylcholinesterase and on Cholinesterase were 121 nM and 2100 nM, respectively. The values for the Activity result in the data set with HepG2 [1], in the data set with HepG2 [2] and in the data set with HepG2 [3] were “Non-Toxic”, 50% and “Toxic”, respectively.
With `Cc1cc(=O)[nH]c2c1C(=O)C(NCCNc1c3c(nc4ccccc14)CCCC3)=CC2=O`, the IC50 came to 667 nM at Acetylcholinesterase and 182 nM at Cholinesterase. The Activity result with HepG2 [1] is listed as “Non-Toxic”; with HepG2 [2], 12%; in the data set on HepG2 [3], “Toxic”.
